Data set [1] relates to MV4-11 cells. Nature of the data set: AML xenograft model MV4-11, in vivo tumor growth inhibition. As for the experimental part:
ND-2158 at 100 mpk was used as a control.
MV4-11 cells were grown in Iscove's Modified Dulbecco's medium supplemented with 10% FBS and 1% penicillin streptomycin. To establish tumors, 15×10^6 MV4-11 cells were injected subcutaneously in 200 μl of 1:1 HBSS and ECM gel into the right flank of the athymic nude mice. Animals were randomized based on tumor volumes. […] Treatments were initiated when the average tumor volume sizes were 333 mm^3. Tumor volumes were measured three times a week and body weights were monitored daily.

A further data set has as its system MOLM-14 FLT3-ITD/D835Y. Nature of the data set: Cell viability assay (CellTiter-Glo, 72 h), MOLM-14 FLT3-ITD/D835Y. Format: cell-based. Conditions: Homo sapiens, mean of at least 3 assays. As for the experimental part: (§1) The parental MOLM-14 cell line contained a FLT3-ITD mutation. Quizartinib-resistant MOLM-14 derivative cell lines MOLM-14 FLT3-ITD/D835Y and MOLM-14 FLT3-ITD/F691L contained a double FLT3 mutation (the original ITD mutation and a secondary mutation within the kinase domain).
(§2) All cells lines were cultured in RPMI 1640+GlutaMAX supplemented with 1× Pen-Strep and 10% FBS (referred to as media hereafter). Cells were cultured in 75 cm^2 or 225 cm^2 tissue culture flasks in a 37° C. humidified tissue culture incubator with 5% CO2. Cell densities were maintained between 0.5-2.0×10^6 cells/mL.
(§3) Two days before compound treatment, cells were pelleted and resuspended in fresh medium. The day of dosing, cells were counted and stained with trypan blue to determine cell viability. 5,000 viable cells were transferred in a volume of 90 μL or 135 μL per well to all wells of a 96-well tissue culture plate and returned to the tissue culture incubator. […]
(§4) After 72 h incubation, cell viability was assessed using the CellTiter-Glo Luminescent Cell Viability Assay (2.0) according to the vendor's instructions. […] Luminescence readings were measured using a TopCount384 instrument.
(§5) The percent inhibition of the compound treated samples was determined relative to the DMSO-treated cell control samples. […] The mean EC50 values from at least 3 independent viability assays performed on different days were determined.

The next data set deals with MV4-11 cell line. Nature of the data set: Anti-proliferative activity, MV4-11 cell line (Example 5, CellTiter Glo). Format: cell-based. Particulars: Homo sapiens, Example 5 procedure, 5,000 cells/well. As for the experimental part:
(§6) The same procedure was used for both the MV4-11 cells and MOLM-13 cells. Each cell line has an ITD mutation in the FLT-3 kinase.
(§7) The cells were grown to ˜80% confluence, split in half and grown overnight. The cells were seeded at a density of 5,000 cells/well in a volume of 150 μL into a 96-well black plate in all wells except columns 1 and 12 and rows A and H. They were incubated overnight in 10% serum and HBSS was added to wells on the periphery. In a deep 96-well plate, 1000 μL of 10% FBS was added into wells B2 and D2. 750 μL of 10% FBS, 1% DMSO medium per well was added in row B except well B2. 5 μL of 20 mM compound was added into well B2. 250 μL was transferred from column 2 to column 3 and mixed. The process was repeated until column G to give a 1:4 dilution. 15 μL of compound mixture was added to each well of the cell plate (135 μL volume).

The subject of data set [2] is MV4-11 cells. Nature of the data set: MV4-11 CellTiter Glo cell viability/proliferation assay (Example 2). Format: cell-based. Conditions: Homo sapiens, procedure of Example 2, read-out: IC50, inhibition of proliferation in MV4-11 cells. On the procedure:
The CellTiter Glo Luminescent cell viability assay is a highly sensitive homogenous assay to determine the number of viable cells in culture based on quantitation of ATP levels in metabolically active cells. Addition of CTG reagent results in cell lysis and generation of a luminescent signal proportional to the amount of ATP present. The amount of ATP is proportional to the number of cells present. The luminescence is measured using a multilabel reader capable of measuring luminescence. An increase or decrease in cell numbers results in a concomitant change in luminescene level, indicating the effect of the test material on cellular proliferation.
CellTiter-Glo buffer was thawed and equilibrated to room temperature. Lyophilized CellTiter-Glo substrate was brought to room temperature. CTG reagent is prepared by mixing the CellTiter-Glo buffer (Promega Cat #G7572) into an amber bottle containing CellTiter-Glo substrate to reconstitute the lyophilized enzyme/substrate mixture. Both Buffer and the lyophilized substrate are supplied with the kit.
Add 1% Penicillin Streptomycin and 10% FBS to commercially available liquid IMDM (Iscove's Modified Dulbecco's Medium, Invitrogen Cat #12440046).
1. MV4-11 cells were counted and re-suspended to a density of 0.1×10^6 cells/ml in complete IMDM medium. 95 μL of this cell suspension was added per well of a 96-well plate (black plate with clear bottom) to seed ˜0.1×10^5 cells per well. The plates were incubated at 37° C. under a humidified atmosphere of 5% CO2 for ˜2 hours before compound addition. 2. Test compounds were dissolved in 100% DMSO to generate a 2/6/10/20 mM stock solution. A 200× concentration of the required final concentrations was prepared in DMSO. 10 μL of each concentration (200×) was then diluted in 90 μL of serum-free IMDM to prepare an intermediate concentration of 20× in medium. The DMSO concentration in this step was 10% (Intermediate dilution). 5 μL of each intermediate dilution was then added in triplicates to cells previously seeded in 96-well plate. The final DMSO concentration was 0.5% in the experimental wells. Cells treated with 0.5% DMSO served as a positive control. 100 μL of complete IMDM medium served as media blank for data analysis. 200 μL of 1×PBS was added in all corner wells of the assay plate to avoid evaporation of media in experimental wells. Plates were then incubated for 72 hours in an incubator with 5% CO2 at 37° C. 3. To terminate the assay, 50 μL of CTG reagent was added to each well and the plate was incubated at room temperature for 15 minutes on a shaker. The plate was read using the luminescence mode on a multilabel reader capable of measuring luminescence. The luminescence values were plotted against respective concentrations of the test item using GraphPad Prism to calculate the IC50 value for the test item. Percent Inhibition is Calculated as Follows: […]
Positive control wells contained cells, IMDM medium and 0.5% DMSO. Blank control wells contained IMDM medium alone.

Another data set deals with MOLM-14 FLT3-ITD tumors. In words: MOLM-14 FLT3-ITD mouse xenograft tumor model. Conditions: 100 mg/kg orally once-daily, after 12 or 14 days of dosing. Format: in vivo, athymic nude mice. The text has this:
(§8) Compound A efficacy was compared to mice administered vehicle.

The test system of another data set is MOLM-13 cell line. Nature of the data set: Anti-proliferative activity, MOLM-13 cell line (Example 5, CellTiter Glo). Format: cell-based. Particulars: Homo sapiens, Example 5 procedure, 5,000 cells/well. On the procedure:
as §6, §7
In general terms: Cellular ATP, detected with luciferase, serves as a proxy for viable cell number.

For another data set, the system named is MOLM-14 FLT3-ITD/F691L. Nature of the data set: Cell viability assay (CellTiter-Glo, 72 h), MOLM-14 FLT3-ITD/F691L. Format: cell-based. Conditions: Homo sapiens, mean of at least 3 assays. As for the experimental part: as §1, §2, §3, §4, §5
Data set [3] deals with MOLM-14 FLT3-ITD/F691L tumors. In words: MOLM-14 FLT3-ITD/F691L mouse xenograft tumor model. Conditions: 100 mg/kg orally once-daily, after 12 or 14 days of dosing. Format: in vivo, athymic nude mice.
Source text: as §8

For data set [4], the system named is MOLM-14 cell line (FLT3-ITD). Nature of the data set: Cell viability assay (CellTiter-Glo, 72 h), parental MOLM-14. Format: cell-based. Particulars: Homo sapiens, mean of at least 3 assays. As for the experimental part: as §1, §2, §3, §4, §5
The test system of data set [5] is MOLM-14 FLT3-ITD/D835Y tumors. In words: MOLM-14 FLT3-ITD/D835Y mouse xenograft tumor model. Format: in vivo, athymic nude mice. Particulars: 100 mg/kg orally once-daily, after 12 or 14 days of dosing.
Source text: as §8

Usually EC50 stands for the concentration that produces a half-maximal response. Regarding `Cc1cc(-c2nc(C(=O)Nc3cc4oc(N5CCOCC5)nc4nc3N3CC[C@@H](O)C3)co2)ccn1` [Compound A], in the data set with MV4-11 cells [1] (12.5 mg/kg orally once daily, 21 days), the tumor growth inhibition was found to be 92%. Also, the tumor response entry is on record as “partial tumor regression” in the data set on MV4-11 cells [1] (25 mg/kg orally once daily, 21 days); “partial tumor regression” in the data set with MV4-11 cells [1] (50 mg/kg orally once daily, 21 days); “Tumor growth stasis” in the data set with MV4-11 cells [1] (12.5 mpk, after 21 days of treatment). For the same molecule, in the data set on MV4-11 cells [1] (12.5, 25, and 50 mg/kg orally once daily, 21 days), the “tolerability (clinical signs, gross pathological changes)” value was “well tolerated without any treatment related clinical signs and gross pathological changes”. The body weight result in the data set with MV4-11 cells [1] (all treatment groups, 21 days, FIG. 4) is “No body weight reduction was observed”. Besides, the EC50 with MOLM-14 FLT3-ITD/D835Y stood at 108 nM; with MOLM-14 FLT3-ITD/F691L it was 2490 nM; in data set [4], 58 nM. Further, the results for the IC50 in the data set with MV4-11 cell line, with MV4-11 cells [2] and in the data set with MOLM-13 cell line were 70 nM, 31 nM and 190 nM, respectively. For the same molecule, the “percent tumor growth inhibition (% TGI)” value came out at 90% in the data set with MOLM-14 FLT3-ITD tumors, 73% in [3] and 98% in data set [5].

Values taken from patent US11419875B2, “Compounds and compositions for treating hematological disorders” (Aurigene Discovery Technologies Limited, priority 2017, dated 2022).
